Data reported in the SangsterLogP compilation.

Assay: not given
Details: not given
Compound NC1=NCC(COc2ccccc2Cc2ccccc2)O1 (configuration not stated) has a logP of 3.05. CCC(C)(C)c1ccc(OCC2CN=C(N)O2)cc1 (configuration not stated) gave a logP of 3.69.

Assay: method code SF-HPLC, from DOI: 10.1080/10826079708014133
Details: pH 11.0
In the case of Cc1ccc(OCC2CN=C(N)O2)cc1C (configuration not stated), the logD is reported as 2.1. For Cc1ccc(OCC2CN=C(N)O2)c(C)c1 (configuration not stated), the logD was 2.23. Compound Cc1cccc(OCC2CN=C(N)O2)c1C (configuration not stated) has a logD of 2.25. Work on NC1=NCC(COc2cccc(C(F)(F)F)c2)O1 (configuration not stated) yielded a logD of 2.35. In the case of Cc1ccc(C)c(OCC2CN=C(N)O2)c1 (configuration not stated), the logD is reported as 2.29. Work on CCc1ccc(OCC2CN=C(N)O2)cc1 (configuration not stated) yielded a logD of 2.27. In the case of Cc1cccc(OCC2CN=C(N)O2)c1 (configuration not stated), the logD is reported as 1.75. In the case of Cc1cccc(C)c1OCC1CN=C(N)O1 (configuration not stated), the logD is reported as 2. NC1=NCC(COc2ccc(-c3ccccc3)cc2)O1 (configuration not stated) gave a logD of 2.8. Work on NC1=NCC(COc2cccc(Cl)c2)O1 (configuration not stated) yielded a logD of 2.09.
